According to article PMC11279468, “Exploring a New Generation of Pyrimidine and Pyridine Derivatives as Anti-Influenza Agents Targeting the Polymerase PA–PB1 Subunits Interaction” (Pharmaceutics, 2024):
Like-named read-outs stand apart in the source and are kept apart here.

Legend:
[1] = system: Influenza virus strain A/PR/8/34 (H1N1); conditions: plaque reduction assay in MDCK cells; cited from earlier work
[2] = molecular target: T1, PA–PB1 interaction (6His-PA(239–716) / GST-PB1(1–25)) (Influenza A virus, UniProt P03433)
HEK 293T cells = conditions: cited from earlier work
MDCK cells = conditions: cited from earlier work
[3] = system: Influenza virus strain A/PR/8/34 (H1N1); experiment: microbe, parasite or virus in culture; conditions: unidentified influenza virus, MDCK, read-out: EC50 (PRA)
in vitro = conditions: dog
Experimental: The cytotoxicity of compounds was tested in MDCK cells using the 3-(4,5-dimethylthiazol-2-yl)-2,5-diphenyl tetrazolium bromide (MTT) method, as previously reported [32]. Briefly, MDCK cells (seeded at a density of 2 × 10^4 per well) were grown in 96-well plates for 24 h and then treated with serial dilutions of test compounds, or DMSO as a control, in DMEM supplemented with 10% FBS. After incubation at 37 °C for 48 h, 5 mg/mL of MTT (Sigma, Tokyo, Japan) in PBS was added into each well and incubated at 37 °C for a further 4 h. Successively, a solubilization solution was added to lyse the cells and incubated overnight at 37 °C. Finally, optical density was read at the wavelength of 570 nm on a microtiter plate reader (MultiSkan FC, ThermoFisher Scientific).

[4] = molecular target: T1, PA–PB1 interaction (6His-PA(239–716) / GST-PB1(1–25)); experiment: biochemical; assay type: binding
[5] = read-out: IC50 (ELISA PA–PB1); ELISA PA–PB1 interaction; cited from earlier work

Row | Compound | EC50 [1] [µM] | IC50 [2, 5] [µM] | CC50 (HEK 293T cells) [µM] | CC50 (MDCK cells) [µM] | EC50 [3] [µM] | melting point [°C] | CC50 at 48 h (in vitro) [µM] | IC50 [4] [µM] | IC50 ([2]; ELISA PA–PB1 interaction; read-out: IC50 (ELISA PA–PB1); cited from earlier work) [µM]
1 | Cc1cccc(NC(=O)CSc2nc(-c3ccc(C(F)(F)F)cc3)cc(-c3ccc(C(F)(F)F)cc3)n2)c1 [Compound 1c] | 26.5 ± 4.3 | > 200 | > 250 | > 250 | – | – | – | – | –
2 | COC(=O)[C@@H](NC(=O)CSc1nc(-c2ccccc2)cc(-c2ccc(F)cc2)n1)C(C)C [Compound 3a, Methyl (2-((4-(4-fluorophenyl)-6-phenylpyrimidin-2-yl)thio)acetyl)-L-valinate] | – | – | – | – | > 100 | 152 to 153 | 234 ± 19 | > 200 | –
3 | COC(=O)[C@H](Cc1ccc(O)cc1)NC(=O)CSc1nc(-c2ccccc2)cc(-c2ccc(F)cc2)n1 [Compound 3c, Methyl (2-((4-(4-fluorophenyl)-6-phenylpyrimidin-2-yl)thio)acetyl)-L-tyrosinate] | – | – | – | – | > 100 | 167 to 168 | > 250 | 172 ± 7 | –
4 | Cc1cccc(NC(=O)CSc2nc(Sc3ccccc3)cc(-c3ccccc3)n2)c1 [Compound 2i, 2-{[4-Phenyl-6-(phenylthio)pyrimidin-2-yl]thio}-N-(m-tolyl)acetamide] | – | – | – | – | 4.6 ± 0.3 | 127 to 128 | 73.3 ± 9.1 | 28.8 ± 1.5 | –
5 | CC[C@H](C)[C@H](NC(=O)CSc1cc(-c2ccccc2)cc(-c2ccccc2)n1)C(=O)OC [Compound 3j, Methyl (2-((4,6-diphenylpyridin-2-yl)thio)acetyl)-L-isoleucinate] | – | – | – | – | – | 70 to 71 | – | > 200 | –
6 | Cc1ccc(-c2cc(-c3ccccc3)nc(SCC(=O)Nc3cccc(C)c3)c2C#N)cc1 [Compound 1a] | – | – | – | – | – | – | – | – | 80
7 | COC(=O)[C@H](Cc1ccc(O)cc1)NC(=O)CSc1cc(-c2ccccc2)cc(-c2ccccc2)n1 [Compound 3k, Methyl (2-((4,6-diphenylpyridin-2-yl)thio)acetyl)-L-tyrosinate] | – | – | – | – | – | 111 to 112 | – | > 200 | –
8 | COC(=O)[C@H](Cc1c[nH]cn1)NC(=O)CSc1nc(-c2ccccc2)cc(-c2ccc(F)cc2)n1 [Compound 3d, Methyl (2-((4-(4-fluorophenyl)-6-phenylpyrimidin-2-yl)thio)acetyl)-L-histidinate] | – | – | – | – | > 100 | 77 to 78 | 98 ± 11.3 | 70 ± 2.8 | –
9 | Cc1cccc(NC(=O)CSc2cc(-c3ccc(Cl)cc3)cc(Sc3ccccc3)n2)c1 [Compound 2n, 2-{[4-(4-chlorophenyl)-6-(phenylthio)pyridin-2-yl]thio}-N-(m-tolyl)acetamide] | – | – | – | – | 62.9 ± 13.2 | 93 to 95 | > 250 | 87 ± 15.7 | –
10 | CC[C@H](C)[C@H](NC(=O)CSc1cc(-c2ccccc2)cc(-c2ccc(F)cc2)n1)C(=O)OC [Compound 3l, Methyl (2-((6-(4-fluorophenyl)-4-phenylpyridin-2-yl)thio)acetyl)-L-isoleucinate] | – | – | – | – | – | 76 to 77 | – | > 200 | –
11 | COC(=O)[C@H](Cc1ccc(O)cc1)NC(=O)CSc1cc(-c2ccccc2)cc(-c2ccc(F)cc2)n1 [Compound 3m, Methyl (2-((6-(4-fluorophenyl)-4-phenylpyridin-2-yl)thio)acetyl)-L-tyrosinate] | – | – | – | – | – | 151 to 152 | – | > 200 | –
12 | COC(=O)[C@H](Cc1c[nH]cn1)NC(=O)CSc1nc(-c2ccc(F)cc2)cc(-c2ccc(F)cc2)n1 [Compound 3h, Methyl (2-((4,6-bis(4-fluorophenyl)pyrimidin-2-yl)thio)acetyl)-L-histidinate] | – | – | – | – | > 100 | 107 to 108 | > 250 | 108 ± 14 | –
13 | Cc1cccc(NC(=O)CSc2nc(-c3ccccc3)cc(-c3ccccc3)n2)c1 [Compound 1d] | 3.5 ± 0.5 | 165 ± 18 | 22.3 | 10.1 ± 1.7 | – | – | – | – | –
14 | Cc1cccc(NC(=O)CSc2nc(-c3ccc(Cl)cc3)cc(-c3ccc(Cl)cc3)n2)c1 [Compound 2a, 2-{[4,6-Bis(4-chlorophenyl)pyrimidin-2-yl]thio}-N-(m-tolyl)acetamide] | – | – | – | – | > 100 | 225 to 227 | > 250 | 70.8 ± 19.5 | –
15 | CC[C@H](C)[C@H](NC(=O)CSc1nc(-c2ccc(F)cc2)cc(-c2ccc(F)cc2)n1)C(=O)OC [Compound 3f, Methyl (2-((4,6-bis(4-fluorophenyl)pyrimidin-2-yl)thio)acetyl)-L-isoleucinate] | – | – | – | – | > 100 | 150 to 151 | > 250 | > 200 | –
